From patent US9687551B2, “Compositions comprising lecithin oils and NSAIDs for protecting the gastrointestinal tract and providing enhanced therapeutic activity” (The Board of Regents of the University of Texas System, priority 2000, dated 2017)

Assays:
[1] = test system: PGI2 to TXA2 ratio of carotid artery; test: PGI2 to TXA2 ratio in affected carotid arteries; type: in vivo, rabbit; conditions: 2.5 mg/kg aspirin; FIG. 14C
Protocol: 6-keto PGF1α (a metabolite of PGI2) and TXA2 concentrations was also measured in the affected carotid arteries.

[2] = test system: vascular (endothelial) PGI2, abdominal aorta; test: Ex vivo 6-keto PGF1α production by abdominal aorta; type: in vivo, rat; conditions: 20 mg/kg ASA intragastric, 1 hr, incubated with AA; vs control; FIG. 13B
Protocol: FIG. 13B graphically depicts the effect of intragastric administration to rats of 20 mg/kg ASA alone or complexed with DPPC on 6KPGF1a production by abdominal aorta. After 1 hr the aorta was removed and each aorta ring was incubated at […] for 10 min in Tris-HCl buffer containing 25 mM AA. 6KPGF1a was measured by RIA. *=p<0.050 vs ASA; **=p<0.001 vs saline; n=4;
This ex vivo approach was then used to measure vascular (endothelial) PGI2. Abdominal aorta excised one hour after drug administration was evaluated for its ability to produce 6-keto PGF1α (a stable metabolite of PGI2) by incubating it with arachidonic acid (AA, 25 mM). […] It is, therefore, possible to achieve selective inhibition of platelet cyclooxygenase and preserve vascular prostacyclin biosynthesis by the administration of PC-aspirin.

[3] = test system: rabbit carotid artery thrombus; test: In vivo model of arterial thrombogenesis (carotid artery, anodal current)
Protocol: The anti-thrombotic effect of aspirin with or without PC was then evaluated in an in vivo model of arterial thrombogenesis. According to the protocol (B24), the left carotid artery of an anesthetized rabbit was subjected to anodal current to the point where mean carotid blood flow velocity was […] control values, which corresponds to 50% occlusion of the vessel by the formed thrombus. At this point the current was discontinued and the test drugs intravenously administered as blood flow was monitored over the next 2-3 hours. It can be appreciated from FIG. 14A that carotid artery blood flow velocity dropped to zero (indicative of complete thrombus occlusion of the vessel) in <60 min in control rabbits treated with either saline or phospholipid alone (mean time until closing=40±17).

[4] = test system: fasted Sprague Dawley rats; test: Acetaminophen liver injury, plasma AST; type: in vivo, rat; conditions: acetaminophen 800 mg/kg oral, 24 hrs, P35 SB 1:2 wt ratio, vs saline; FIG. 15
Protocol: FIG. 15 graphically depicts data relating to liver injury in rats, as indicated by elevations in the plasma levels of the enzyme aspartate transaminase (AST), 24 hours after fasted rats are orally administrated acetaminophen (800 mg/kg) alone or in combination with P35SB at wt. ratios of 1:1 and 1:2.

fasted rats [5] = test: GI bleeding (hemoglobin in GI effusate) in rats sensitised with L-NAME; type: in vivo, rat; conditions: intragastric, NSAID:lecithin 1:1, L-NAME
Protocol: Control rats received an equivalent volume of saline. To make the rats more sensitive to the GI damaging effects of the NSAID all rats also were injected with the nitric oxide (NO) synthase inhibitor, L-NAME (20 mg/kg), three times over the 18-20 hr study period, after which the animals were euthanized and the distal 20 cm of the GI tract was flushed with 2 ml of saline, and the effusate collected for hemoglobin analysis—as an index of GI bleeding.

rats' inflamed paw = test: Pain threshold of CFA-inflamed hindpaw (Randall-Sellito technique); type: in vivo, rat; conditions: 2 h; for pain pressure threshold of inflamed paw (analgesic activity): lecithin oil 1:1
Protocol: A previously described method was then used to evaluate the anti-inflammatory/analgesic activity of the NSAID-lecithin formulations (in comparison to the NSAIDs alone). This was accomplished be injecting 0.1 ml of Complete Freund's Adjuvant (CFA) into the left hindpaw of rats to induce an acute inflammatory response. […] The results are depicted in FIGS. 4-6.

mucosal COX activity = conditions: aspirin subcutaneously or intragastrically; cited from earlier work
[6] = test system: TXB2 production in rat platelets; test: Ex vivo TXB2 production in platelets after intragastric dosing; conditions: 20 mg/kg intragastric, 30 min, aggregation induced by arachidonic acid; FIG. 13A
Protocol: FIGS. 13A&B graphically depicts Concentration of TXB2 in rat platelets, 30 min after oral administration of saline, DPPC, ASA (20 mg/kg), or ASA complexed with DPPC. PRP was prepared and aggregation induced by AA (2 mM). TXB2 was measured by RIA. The results expressed as mean±SEM; n=3. *=p<0.050 vs ASA—Abbreviations: DPPC=dipalmitoylphosphatidylcholine; AA=arachidonic acid; pRP=platelet rich plasma; TXB=thromboxane;
Ex vivo animal studies of the effects of phospholipid-aspirin complex (containing equimolar concentration of the two agents) on the ability to produce TXA2 and PGI2 in platelets and vascular tissue respectively were invesitaged. Rats were intragastrically administered either unmodified or DPPC-associated aspirin (20 mg/kg dose), and after 30 minutes, blood was drawn, platelet-rich plasma was prepared, and aggregation was induced by arachidonic acid.

fasted rats [7] = test: Gastric lesions after intragastric aspirin followed by HCl challenge; type: in vivo, rat; conditions: aspirin 18 mg/kg, 0.6 N HCl 45 min later, ASA:lecithin oil 1:0.5, 1:1, 1:2, FIG. 1
Protocol: One preferred embodiment of this formulation is a lecithin oil based PC-NSAID composition, which has been tested for GI toxicity. The three formulations that were tested include lecithin oils combined with aspirin, indomethacin and ibuprofen. In this study, aspirin was combined with Phosal® 35 SB, a lecithin oil, marketed by Phospholipid GmbH (Cologne, Germany), that is constituted of soy lecithin-derived components in sunflower oil. More particularly, Phosal® 35 SB lecithin oil contains about 33-40 wt. % phosphatidylcholine (PC, not including lyso-phosphatidylcholine), about 26-31 wt. % triglycerides, about 8-13 wt. % free fatty acids, and about 5-9 wt. % glycolipids. The aspirin/lecithin oil (Phosal® 35 SB) composition was intragastrically administered to fasted rats at an aspirin dose of 18 mg/kg, where the NSAID:lecithin oil weight ratio was systematically varied from 1:0.5, to 1:1, to 1:2. In addition, other groups of rats received an equivalent dose of aspirin in the absence of the lecithin oil, or an equivalent volume of saline. Forty five minutes later all animals were intragastrically challenged with 1 ml of 0.6 N HCl, and 15 min later, the animals were euthanized and their stomachs opened and the gastric lesions scored by an established method.^50-52

SCI rats = conditions: 25 mg NSAID/kg twice a day
Description: In FIG. 7A, the data was plotted directly as recorded (without normalization), while in FIG. 7B, the data values for each animal are compared to its own baseline preoperative values.
Please note that in this case, a lower number is indicative of analgesic, whereas with the Randall Sellito test higher pain pressure threshold values are indicative of analgesia.

Tg2576 mouse = conditions: cited from earlier work

With `CCCCCCCCCCCCCCCC(=O)OC[C@H](COP(=O)([O-])OCC[N+](C)(C)C)OC(=O)CCCCCCCCCCCCCCC` [DPPC, dipalmitoylphosphatidylcholine] the “PGI2 to TXA2 ratio in affected carotid arteries” value [1] was “improved slightly”, the “6-keto PGF1α production by abdominal aorta” value [2] was “no effect” and the “time until blood flow velocity dropped to zero (complete occlusion)” value ([3]; control rabbits treated with saline or phospholipid alone, FIG. 14A) was under 60 min. For the same compound, the “mean time until closing” value ([3]; control rabbits, saline or phospholipid alone (pooled), in min) was 40±17.

With `CC(=O)Nc1ccc(O)cc1` [Tylenol, acetaminophen] the “plasma aspartate transaminase (AST), liver injury” value [4] was “significantly elevated”.

With `COc1ccc2c(c1)c(CC(=O)O)c(C)n2C(=O)c1ccc(Cl)cc1` [indomethacin] the GI bleeding (fasted rats [5]; indomethacin 10 mg/kg, FIG. 2) was “severe increase in GI bleeding” and the “pain pressure threshold of inflamed paw (analgesic activity)” value (rats' inflamed paw; indomethacin 4 mg/kg intragastric, FIG. 6) was “modest though non-significant, ability to increase the pain pressure threshold”.

For `CC(=O)Oc1ccccc1C(=O)O` [aspirin], the “PGI2 to TXA2 ratio in affected carotid arteries” value [1] is listed as “improved slightly”, the “inhibition of mucosal COX activity” value (mucosal COX activity) is listed as over 90% and the “6-keto PGF1α production by abdominal aorta” value [2] is listed as “significantly inhibited”. For the same compound, the “TXB2 production in platelets” value [6] was “reduction in TXB2”, the “pain threshold of affected paw (analgesic activity)” value (rats' inflamed paw; aspirin 10 mg/kg intragastric, all weight ratios tested, FIG. 4) was “modest ability to increase the pain threshold” and the gastric lesions (fasted rats [7]) was “high number of gastric lesions”. The “time to vessel occlusion by thrombus” value ([3]; 2.5 mg/kg aspirin i.v., FIG. 14A) was at most 61 ± 15 min and the vessel occlusion ([3]; aspirin 5-20 mg/kg i.v., 2-3 hr experiment (data not shown)) was “no vessel occlusion”.

For `CC(C)Cc1ccc(C(C)C(=O)O)cc1` (centres unmarked) [ibuprofen], the GI bleeding (fasted rats [5]; ibuprofen 100 mg/kg, FIG. 3) was “modest increase in GI bleeding”, the body weight gain (SCI rats; 6 week period, FIG. 9) was “do not gain weight” and the “pain pressure threshold (hyperalgesia), Randall Sellito” value (SCI rats; 6 weeks after SCI, FIGS. 7A, 7B) was “hyperalgesia due to SCI was not seen”. For the same compound, the “pain pressure threshold of inflamed paw (analgesic activity)” value (rats' inflamed paw; ibuprofen 25 mg/kg intragastric, FIG. 5) was “modest though non-significant, ability to increase the pain pressure threshold” and the “amyloid-plaques, dystrophic neurites and activated microglia” value (Tg2576 mouse) was “reduce numbers of amyloid-plaques, dystrophic neurites and activated microglia”.
